Assay results published in US20050239842A1, “Methods of using and compositions comprising immunomodulatory compounds for the treatment and management of pulmonary hypertension” (priority 2004, published 2005).

Assays:
[1] = system: production of various cytokines; assay: In vitro pharmacological activity profile compared with thalidomide; format: cell-based; conditions: in vitro studies
Text: The pharmacological properties of 3-(4-amino-1 -oxo-1,3-dihydro-isoindol-2-yl)-piperidine-2,6-dione, including activity comparisons with thalidomide, have been characterized in in vitro studies. Studies examined the effects of 3-(4-amino-1-oxo-1,3-dihydro-isoindol-2-yl)-piperidine-2,6-dione or thalidomide on the production of various cytokines.
The pharmacological effects of 3-(4-amino-1-oxo-1,3-dihydro-isoindol-2-yl)-piperidine-2,6-dione derive from its action as an inhibitor of cellular response to receptor-initiated trophic signals (e.g., IGF-1, VEGF, […]), and other activities. As a result, 3-(4-amino-1-oxo-1,3-dihydro-isoindol-2-yl)-piperidine-2,6-dione suppresses the generation of inflammatory cytokines, down-regulates adhesion molecules and apoptosis inhibitory proteins (e.g., cFLIP, clAP), promotes sensitivity to death-receptor initiated programmed cell death, and suppresses angiogenic response.

patients with PH [2] = assay: Clinical Study 2 in PH patients, 12 weeks, placebo controlled; format: in vivo, human
Procedure: In one embodiment of the invention, 3-(4-amino-1-oxo-1,3-dihydro-isoindol-2-yl)-piperidine-2,6-dione is administered in a single or divided daily doses in an amount of from about 1 to about 100 mg/day. In another embodiment of the invention, 3-(4-amino-1-oxo-1,3-dihydro-isoindol-2-yl)-piperidine-2,6-dione is administered from about 1 to about 20 mg/day individually. The compound is administered to patients with PH for 12 weeks, who are subsequently evaluated for a decline in walk distance, dyspnea score, functional class, pulmonary hemodynamic response. The first study enrolls 32 patients with PH. Patients are all in modified New York Heart Association functional class III at the onset of the study. Patents are maximally treated and are stable on conventional therapy, including calcium channel antagonists and diuretics. Two thirds of patients receive 5 mg of 3-(4-amino-1-oxo-1,3-dihydro-isoindol-2-yl)-piperidine-2,6-dione for four weeks followed by 10 mg of the compound for eight weeks. One third of patients receive placebo. The primary efficacy endpoint is a 6-minute walk distance. Patients receiving the compound of the invention walk an average of 70 meters farther after 12 weeks while placebo patients have a decline in walk distance. In addition, the treated patients have improvements in dyspnea score and functional class compared with placebo patients. Pulmonary hemodynamic measurements reveal decreases in pulmonary arterial pressure and pulmonary vascular resistance, and increase in cardiac output after 12 weeks of the treatment, compared with worsening of pulmonary hemodynamics in placebo patients. All these changes in treated patients are highly significant compared with placebo.

patients with PH [3] = assay: Expanded clinical study in PH patients, WHO functional class III or IV, 16 weeks; format: in vivo, human
Procedure: On the basis of the results of the above study 2, the clinical study is expanded with additional 213 PH patients for at least 16 weeks. The study is conducted with patients with PH, WHO functional class III or IV. Two hundred thirteen patients are randomized to receive either 5 mg bid or 10 mg bid of 3-(4-amino-1-oxo-1,3-dihydro-isoindol-2-yl)-piperidine-2,6-dione or placebo in a 1:1:1 ratio. The primary endpoint, a 6-minute walk distance, is evaluated at 16 weeks. The treated patients walk 36.4 meters further at 16 weeks compared to a 7.8 meter reduction in walk distance in the placebo group, for a treatment effect of 44.2 meters. Clinical worsening, defined by death, premature withdrawal from study, hospitalization for worsening of PH or institution of epoprostenol, occur in 37% of placebo-treated patients, compared with 11% of the patients treated with the compound of the invention.

[4] = cited from earlier work

Compound	potency relative to thalidomide [1]	dyspnea score and functional class (patients with PH [2]; 12 weeks, compared with placebo patients)	cardiac output (patients with PH [2]; after 12 weeks of treatment)	pulmonary arterial pressure and pulmonary vascular resistance (patients with PH [2]; after 12 weeks of treatment)	6-minute walk distance, average increase (patients with PH [2]; after 12 weeks, 5 mg for four weeks then 10 mg for eight weeks)	treatment effect on 6-minute walk distance versus placebo (patients with PH [3]; at 16 weeks)	6-minute walk distance, increase (patients with PH [3]; at 16 weeks, 5 mg bid or 10 mg bid)	clinical worsening (death, premature withdrawal, hospitalization for worsening of PH or institution of epoprostenol), share of patients (patients with PH [3]; treated patients)	functional class (patients with PH [3]; treated versus placebo patients)	stability among forms in aqueous solvent systems [4]
Nc1cccc2c1CN(C1CCC(=O)NC1=O)C2=O (stereo not shown) [3-(4-amino-1-oxo-1,3-dihydro-isoindol-2-yl)-piperidine-2,6-dione]	50 to 2,000 times	improvements	increase	decreases	70 meters	44.2 meters	36.4 meters	11%	improved significantly more	
Nc1cccc2c1CN(C1CCC(=O)NC1=O)C2=O (stereo not shown) [Form E, 3-(4-amino-1-oxo-1,3 dihydro-isoindol-2-yl)-piperidene-2,6-dione]										most stable form
